The supplement of paper PMC12463676, “Small-molecule dissolution of stress granules by redox modulation benefits ALS models” (Nature Chemical Biology, 2025)

Legend:
potassium arsenate = compound: O=[As]([O-])(O)O.[K+] [potassium arsenate]; test: thermal stability z-score vs DMSO; higher = more thermally stabilized by treatment; settings: HeLa; arsenate concentration 1 mM
Experimental: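 Cellular thermal proteome profiling in HeLa cells treated with 1 mM arsenate for 1 h (DMSO pretreatment), heated to ten temperatures (37-66.3 °C). Soluble protein was quantified by TMT mass spectrometry relative to DMSO controls; the thermal stability score was transformed to a z-score; mean of n = 3 experiments.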

lipoamide = compound: NC(=O)CCCCC1CCSS1 [lipoamide]; test: as above; settings: HeLa, lipoamide concentration 100 µM
Experimental: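 Cellular thermal proteome profiling in HeLa cells. Cells were treated with 100 µM lipoamide for 1 h, with or without 1 mM arsenate for a further 1 h, then heated to ten temperatures (37-66.3 °C), and soluble protein was quantified by TMT mass spectrometry relative to 0.1% DMSO controls. The thermal stability score (sum of log2 fold changes minus the abundance score) was transformed to a z-score; mean of n = 3 experiments.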

[1] = arsenate co-treatment: 1 mM arsenate 1 h
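Also: each temperature applied for 3 min, abundance score taken as mean log2 fold change at the two lowest temperatures, z-score obtained by mean subtraction and division by SD.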

UniProt O95716, sequence (O95716 whole entry): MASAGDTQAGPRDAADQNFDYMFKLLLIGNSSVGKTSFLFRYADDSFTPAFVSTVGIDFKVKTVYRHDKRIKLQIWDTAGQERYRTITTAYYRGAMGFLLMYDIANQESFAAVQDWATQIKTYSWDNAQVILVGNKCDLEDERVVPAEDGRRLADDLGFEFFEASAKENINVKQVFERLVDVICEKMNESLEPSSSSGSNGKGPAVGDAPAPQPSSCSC
UniProt O94842, sequence (O94842 whole entry): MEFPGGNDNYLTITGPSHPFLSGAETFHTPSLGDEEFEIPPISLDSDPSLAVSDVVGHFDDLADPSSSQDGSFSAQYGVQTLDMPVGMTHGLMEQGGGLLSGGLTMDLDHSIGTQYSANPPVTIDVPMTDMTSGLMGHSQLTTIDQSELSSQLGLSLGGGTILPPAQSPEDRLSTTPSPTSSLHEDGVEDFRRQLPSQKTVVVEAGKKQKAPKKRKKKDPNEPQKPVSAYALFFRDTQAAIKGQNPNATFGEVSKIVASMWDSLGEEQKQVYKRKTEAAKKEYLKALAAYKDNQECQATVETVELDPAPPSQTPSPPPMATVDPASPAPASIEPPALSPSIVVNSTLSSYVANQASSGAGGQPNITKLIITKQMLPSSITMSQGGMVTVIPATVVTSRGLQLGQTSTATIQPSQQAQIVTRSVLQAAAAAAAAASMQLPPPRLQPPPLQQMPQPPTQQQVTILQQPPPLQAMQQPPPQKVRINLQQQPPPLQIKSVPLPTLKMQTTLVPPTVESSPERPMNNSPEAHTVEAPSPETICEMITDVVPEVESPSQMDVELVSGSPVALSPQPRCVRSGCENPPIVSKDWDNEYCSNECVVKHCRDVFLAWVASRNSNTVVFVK
UniProt Q9ULD2, sequence (Q9ULD2 whole entry): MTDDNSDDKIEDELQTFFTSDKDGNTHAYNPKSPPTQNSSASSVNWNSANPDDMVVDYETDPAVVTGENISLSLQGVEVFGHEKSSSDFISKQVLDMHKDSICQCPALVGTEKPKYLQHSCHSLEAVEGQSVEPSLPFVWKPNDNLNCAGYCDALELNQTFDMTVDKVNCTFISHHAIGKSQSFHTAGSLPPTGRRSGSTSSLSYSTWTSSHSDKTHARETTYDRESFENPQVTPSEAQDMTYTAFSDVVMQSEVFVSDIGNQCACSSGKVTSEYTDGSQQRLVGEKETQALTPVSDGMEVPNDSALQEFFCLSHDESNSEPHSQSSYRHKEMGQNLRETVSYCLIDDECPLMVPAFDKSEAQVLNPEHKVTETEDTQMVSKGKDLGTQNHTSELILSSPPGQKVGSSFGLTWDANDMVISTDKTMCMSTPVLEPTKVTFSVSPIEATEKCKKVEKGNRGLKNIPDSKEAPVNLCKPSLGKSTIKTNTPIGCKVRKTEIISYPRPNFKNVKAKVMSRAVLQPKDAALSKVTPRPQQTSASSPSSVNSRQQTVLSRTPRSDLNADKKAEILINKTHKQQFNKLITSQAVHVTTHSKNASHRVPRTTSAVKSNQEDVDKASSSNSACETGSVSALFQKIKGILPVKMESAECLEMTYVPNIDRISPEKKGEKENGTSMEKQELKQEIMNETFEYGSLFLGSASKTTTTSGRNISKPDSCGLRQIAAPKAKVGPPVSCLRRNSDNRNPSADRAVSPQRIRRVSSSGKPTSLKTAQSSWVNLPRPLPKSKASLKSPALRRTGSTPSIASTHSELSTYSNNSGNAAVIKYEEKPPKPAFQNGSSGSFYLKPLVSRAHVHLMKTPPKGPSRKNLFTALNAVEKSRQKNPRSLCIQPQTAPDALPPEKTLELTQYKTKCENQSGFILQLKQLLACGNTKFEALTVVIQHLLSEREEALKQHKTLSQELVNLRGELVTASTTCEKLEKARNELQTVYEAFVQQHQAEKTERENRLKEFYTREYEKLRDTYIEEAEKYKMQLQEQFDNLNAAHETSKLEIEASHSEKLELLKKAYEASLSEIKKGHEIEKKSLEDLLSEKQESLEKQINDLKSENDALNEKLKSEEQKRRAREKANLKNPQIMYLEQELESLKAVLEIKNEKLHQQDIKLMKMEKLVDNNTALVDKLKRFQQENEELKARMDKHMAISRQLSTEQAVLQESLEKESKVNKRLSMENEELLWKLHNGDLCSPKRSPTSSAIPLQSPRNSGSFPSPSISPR
UniProt Q13111, sequence (Q13111 whole entry): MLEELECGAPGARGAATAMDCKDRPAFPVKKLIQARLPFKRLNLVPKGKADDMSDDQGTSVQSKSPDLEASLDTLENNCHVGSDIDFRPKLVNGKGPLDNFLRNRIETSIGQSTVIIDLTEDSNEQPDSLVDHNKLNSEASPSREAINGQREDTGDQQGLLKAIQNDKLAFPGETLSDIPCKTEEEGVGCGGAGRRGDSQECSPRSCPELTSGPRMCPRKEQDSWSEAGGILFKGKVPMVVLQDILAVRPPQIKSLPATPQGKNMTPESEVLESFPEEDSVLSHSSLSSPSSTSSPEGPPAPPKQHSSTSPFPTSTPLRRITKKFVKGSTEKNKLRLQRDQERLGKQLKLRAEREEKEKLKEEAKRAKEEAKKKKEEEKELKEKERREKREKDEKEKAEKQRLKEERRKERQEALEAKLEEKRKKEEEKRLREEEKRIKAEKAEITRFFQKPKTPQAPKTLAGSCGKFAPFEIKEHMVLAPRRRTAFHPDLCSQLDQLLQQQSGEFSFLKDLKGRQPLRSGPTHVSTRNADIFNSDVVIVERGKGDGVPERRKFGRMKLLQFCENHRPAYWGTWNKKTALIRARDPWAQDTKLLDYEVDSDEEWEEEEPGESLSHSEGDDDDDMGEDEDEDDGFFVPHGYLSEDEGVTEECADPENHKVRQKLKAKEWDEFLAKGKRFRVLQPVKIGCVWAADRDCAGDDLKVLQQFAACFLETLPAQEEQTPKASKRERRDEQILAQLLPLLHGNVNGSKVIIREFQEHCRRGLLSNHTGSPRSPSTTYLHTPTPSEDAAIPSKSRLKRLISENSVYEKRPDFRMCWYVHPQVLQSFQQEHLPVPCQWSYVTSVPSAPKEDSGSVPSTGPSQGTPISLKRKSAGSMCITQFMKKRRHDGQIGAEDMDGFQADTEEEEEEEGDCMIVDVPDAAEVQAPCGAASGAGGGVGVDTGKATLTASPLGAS
UniProt Q9H9T3, sequence (Q9H9T3 whole entry): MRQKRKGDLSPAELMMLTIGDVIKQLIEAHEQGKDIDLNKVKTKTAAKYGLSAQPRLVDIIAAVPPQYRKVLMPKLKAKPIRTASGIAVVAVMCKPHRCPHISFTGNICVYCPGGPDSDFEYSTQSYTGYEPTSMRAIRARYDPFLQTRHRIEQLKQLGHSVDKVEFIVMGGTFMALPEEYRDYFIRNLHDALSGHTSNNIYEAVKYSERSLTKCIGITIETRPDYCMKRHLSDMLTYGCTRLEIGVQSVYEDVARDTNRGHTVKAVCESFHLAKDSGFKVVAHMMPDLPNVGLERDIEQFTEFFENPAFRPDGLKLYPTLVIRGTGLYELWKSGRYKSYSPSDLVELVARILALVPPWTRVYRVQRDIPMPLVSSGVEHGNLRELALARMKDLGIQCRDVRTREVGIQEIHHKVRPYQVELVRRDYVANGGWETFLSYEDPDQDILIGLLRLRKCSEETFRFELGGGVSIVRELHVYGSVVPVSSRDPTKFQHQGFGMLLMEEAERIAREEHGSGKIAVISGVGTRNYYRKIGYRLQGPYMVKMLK
UniProt Q92504, sequence (Q92504 whole entry): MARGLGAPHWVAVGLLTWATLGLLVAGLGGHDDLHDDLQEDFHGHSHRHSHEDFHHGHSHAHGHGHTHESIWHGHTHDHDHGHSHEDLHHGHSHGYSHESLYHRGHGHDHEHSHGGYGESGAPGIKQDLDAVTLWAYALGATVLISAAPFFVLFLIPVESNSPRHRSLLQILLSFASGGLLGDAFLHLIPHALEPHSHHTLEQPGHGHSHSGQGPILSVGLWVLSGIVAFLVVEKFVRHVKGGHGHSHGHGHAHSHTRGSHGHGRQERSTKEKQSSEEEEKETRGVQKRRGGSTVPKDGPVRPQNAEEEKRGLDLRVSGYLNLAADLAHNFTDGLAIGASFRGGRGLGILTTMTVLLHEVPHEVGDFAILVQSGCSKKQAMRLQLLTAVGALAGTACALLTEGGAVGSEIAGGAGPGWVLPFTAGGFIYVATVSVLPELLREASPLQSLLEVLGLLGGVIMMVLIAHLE
UniProt O43676, sequence (O43676 whole entry): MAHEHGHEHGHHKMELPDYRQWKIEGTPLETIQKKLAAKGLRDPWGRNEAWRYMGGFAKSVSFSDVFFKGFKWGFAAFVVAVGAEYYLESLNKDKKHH
UniProt P50579, sequence (P50579 whole entry, looked up): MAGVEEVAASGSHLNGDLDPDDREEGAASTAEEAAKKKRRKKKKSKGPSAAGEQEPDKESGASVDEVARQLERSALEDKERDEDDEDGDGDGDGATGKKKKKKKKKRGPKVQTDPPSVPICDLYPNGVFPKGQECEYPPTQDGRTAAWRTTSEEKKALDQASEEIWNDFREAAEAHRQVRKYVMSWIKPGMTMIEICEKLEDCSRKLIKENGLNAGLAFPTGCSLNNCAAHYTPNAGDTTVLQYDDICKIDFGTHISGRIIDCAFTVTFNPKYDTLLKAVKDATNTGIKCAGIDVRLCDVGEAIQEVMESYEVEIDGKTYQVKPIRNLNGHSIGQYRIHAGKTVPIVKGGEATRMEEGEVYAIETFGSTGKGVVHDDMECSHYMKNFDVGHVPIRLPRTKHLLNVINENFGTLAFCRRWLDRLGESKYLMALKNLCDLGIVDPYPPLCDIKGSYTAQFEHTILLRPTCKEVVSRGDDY
UniProt P13693, sequence (P13693 whole entry): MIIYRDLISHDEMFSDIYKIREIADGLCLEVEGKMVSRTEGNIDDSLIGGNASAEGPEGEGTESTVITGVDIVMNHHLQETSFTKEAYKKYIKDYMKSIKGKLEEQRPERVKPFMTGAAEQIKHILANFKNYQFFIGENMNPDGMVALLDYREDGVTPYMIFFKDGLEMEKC
UniProt P25815, sequence (P25815 whole entry, looked up): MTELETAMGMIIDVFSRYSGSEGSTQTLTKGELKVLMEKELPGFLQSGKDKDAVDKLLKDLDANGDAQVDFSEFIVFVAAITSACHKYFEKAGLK

Target	thermal stability z-score (potassium arsenate)	thermal stability z-score (lipoamide; [1])	thermal stability z-score (lipoamide; arsenate co-treatment: none)
SLBP (UniProt Q14493)	-1.06	-0.736	0.179
MRPS18B (UniProt Q9Y676)	0.102	0.319	0.013
PPT1 (UniProt P50897)	-0.00594	-0.494	-0.324
ZAK (UniProt Q9NYL2)	-0.105	-0.237	-0.237
MAPK14 (UniProt Q16539)	0.772	0.87	-0.0481
ARIH2 (UniProt O95376)	-0.521	0.203	-0.216
ARF4 (UniProt P18085)	-0.609	-0.409	-0.09
KNSTRN (UniProt Q9Y448)	1.36	-0.729	-0.171
HEXIM1 (UniProt O94992)	0.384	0.736	0.591
MTMR1 (UniProt Q13613)	-1.27	-0.545	-0.803
TFIP11 (UniProt Q9UBB9)	-0.187	-0.0949	-0.0621
MRPS25 (UniProt P82663)	0.445	0.0295	0.0583
COL5A2 (UniProt P05997)	1.12	-3.8	-3.3
CDK16 (UniProt Q00536)	0.0532	0.0459	-0.3
IPO8 (UniProt O15397)	0.756	-0.327	-0.557
WASF1 (UniProt Q92558)	-0.375	-0.121	-0.0242
TSPO	0.892	-0.334	0.17
PPFIBP1 (UniProt Q86W92)	0.32	-0.215	0.229
EML1 (UniProt O00423)	-0.156	0.345	0.15
TIMP2 (UniProt P16035)	0.923	-0.833	-0.411
MTUS1 (UniProt Q9ULD2)	0.0626	-0.0967	0.692
CDC42BPA (UniProt Q5VT25)	0.379	0.504	0.561
S100P (UniProt P25815)	0.0845	0.367	-0.088
POGK (UniProt Q9P215)	0.0895	0.0568	0.107
MON2 (UniProt Q7Z3U7)	0.63	0.0206	0.307
RAB34	-0.0345	0.732	0.783
ELP3 (UniProt Q9H9T3)	-0.259	0.0482	0.104
CCPG1 (UniProt Q9ULG6)	0.351	-2.1	-2.44

Target	thermal stability z-score (potassium arsenate)	thermal stability z-score (lipoamide; [1])	thermal stability z-score (lipoamide; arsenate co-treatment: none)
NDUFB3 (UniProt O43676)	0.36	0.00119	-0.236
PARVA (UniProt Q9NVD7)	1.14	0.468	0.672
PPP3CA (UniProt Q08209)	0.275	1.25	0.912
SPATA5 (UniProt Q8NB90)	-0.0295	0.389	0.148
CHAF1A (UniProt Q13111)	-0.0415	0.0368	0.138
MRM3 (UniProt Q9HC36)	-0.218	-0.128	-0.165
CHML (UniProt P26374)	-0.161	0.57	0.276
TMEM2 (UniProt Q9UHN6)	0.466	-0.117	-0.196
MYL12A|MYL12B	-0.0176	0.352	0.436
SNRPC (UniProt P09234)	0.905	0.137	0.0659
USP47 (UniProt Q96K76)	0.244	-0.439	-0.436
OTUB1 (UniProt Q96FW1)	-0.468	0.513	0.823
SYVN1 (UniProt Q86TM6)	-0.421	-2	-2.05
TPT1 (UniProt P13693)	-0.445	0.494	0.196
RPUSD3 (UniProt Q6P087)	0.085	0.12	0.0857
CSK (UniProt P41240)	-0.218	0.116	0.433
GLT8D1 (UniProt Q68CQ7)	0.145	-0.426	-0.593
HNRNPA3 (UniProt P51991)	-0.49	0.238	0.437
METAP2 (UniProt P50579)	0.409	0.0427	0.326
SSR2 (UniProt P43308)	0.191	0.441	-0.158
PRIM2 (UniProt P49643)	-0.113	0.176	-0.165
MUT (UniProt P22033)	-1.02	-0.252	-0.48
RAB3D (UniProt O95716)	0.692	0.635	1.07
PDXK (UniProt O00764)	-0.829	-0.427	-0.245
TOX4 (UniProt O94842)	-0.108	-0.0663	-0.0734
NACA	0.508	0.468	0.47
SLC39A7 (UniProt Q92504)	-0.00591	-1.65	-0.943
